Reference: PubChem BioAssay (NCI)
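All cell lines were grown in 96-well plates and treated with compound for 48 hours. TGI is the concentration that stops growth completely.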 Where a SMILES comes first, the peptide text is derived from it. Bridges are numbered along the chain shown (N, C = ends). [ ]: non-standard residue; d: D form. The star is where a group is joined. Fmoc = O=C(OCC1c2ccccc2-c2ccccc21)*; Aib = CC(C)(N)C(=O)O; OtBu = CC(C)(C)O*; βAla = NCCC(=O)O

Legend:
Experiment in all cases: growth of human tumour cells (NCI), 48 h
[1] = test system: MDA-MB-231 breast
[2] = test system: CAKI-1 renal
[3] = test system: OVCAR-3 ovarian
[4] = test system: EKVX NSCLC
[5] = test system: HS 578T breast
[6] = test system: SNB-75 CNS
[7] = test system: OVCAR-4 ovarian
[8] = test system: TK-10 renal
[9] = test system: PC-3 prostate
[10] = test system: SF-539 CNS
[11] = test system: U251 CNS
[12] = test system: HOP-92 NSCLC

Row | Structure (SMILES) | TGI [1] [µM] | TGI [2] [µM] | TGI [3] [µM] | TGI [4] [µM] | TGI [5] [µM] | TGI [6] [µM] | TGI [7] [µM] | TGI [8] [µM] | TGI [9] [µM] | TGI [10] [µM] | TGI [11] [µM] | TGI [12] [µM]
1 | COc1ccc(S(=O)(=O)N2C(=O)CCC2C(=O)NC(N)=O)cc1 (stereo not given) | > 100 | > 100 | > 100 | > 100 | > 100 | 1.55 | > 100 | > 100 | > 100 | > 100 | > 100 | > 100
2 | CN(C)C(C1=C(O)C(c2ccccc2)N(c2ccccc2)C1=O)N1CCOCC1 (stereo not given) | > 10 | > 10 | > 10 | > 10 | > 10 | > 10 | > 10 | > 10 | > 10 | > 10 | > 10 | > 10
3 | Cc1ccc2c(c1)C(=C(C#N)C#N)CCCS2(=O)=O | > 100 | > 100 | > 100 | > 100 | > 100 | > 100 | > 100 | > 100 | > 100 | > 100 | > 100 | > 100
4 | Oc1c(Br)cc(/C=C/c2ccnc(/C=C/c3cc(Br)c(O)c(Br)c3)c2)cc1Br | 59.4 | > 100 | 53.1 | 56.4 | > 100 | 58.5 | 87.2 | 75 | 39 | 33 | 30.8 | > 100
5 | Cc1ccc2c(=O)cc(-c3sccc3C)[nH]c2n1 | > 43.4 | > 100 | > 100 | > 100 | 13.6 | > 100 | > 100 | > 100 | > 28 | 1.79 | > 33.6 | > 100
6 | COc1ccc2c(c1)Cc1c(NCCN(C)C)ccc(C(=O)NCCCN(C)CCCNC(=O)c3ccc(NCCN(C)C)c4c3Nc3ccc(OC)cc3C4)c1N2 | 0.419 | 11.9 | 1.21 | 0.643 | 0.332 | 0.103 | 0.448 | 4.88 | 0.838 | 2.24 | 1.1 | 2.79
7 | O=C1/C(=C/c2cccc(Cl)c2)CCCc2ccccc21 | 38.2 | 94.5 | 55.8 | 35.9 | 32.9 | > 100 | 31.4 | 34.9 | 38.3 | 32.1 | 29.4 | 60.4
8 | NC1N=C(c2ccc(Cl)cc2)C2=C(N1)c1ccccc1CC2 (stereo not given) | > 100 | > 100 | > 100 | > 100 | > 100 | > 22.7 | 88.2 | > 100 | > 100 | > 100 | > 100 | > 100
9 | CCN1CCC(O)(c2ccc(Oc3ccc(Cl)cc3)cc2)C(C(=O)c2ccc(Oc3ccc(Cl)cc3)cc2)C1 (stereo not given) | 29.4 | 27.3 |  | 34.5 | 58.5 | 26.2 | 32.7 | 23 | 21.3 | 30.3 |  | 24.8
10 | N#CC(c1ccccc1)N(CCCCCCN(C(=O)c1ccccc1)C(C#N)c1ccccc1)C(=O)c1ccccc1 (stereo not given) | > 100 | > 100 | > 100 | > 100 | 83.6 | > 100 | 91.2 | 62.6 | > 100 | > 100 | > 100 | 50.3
11 | CC1=NN(c2nc(N)nc(CN3CCOCC3)n2)C(C)(C)C1 | > 100 | 40.1 | > 100 | > 100 | > 100 | > 100 | 45.7 | > 100 | > 100 | > 100 | > 100 | > 100
12 | CO/C=C/C=C(\C#N)C(=O)OC | > 100 | > 100 | > 100 | > 100 | > 100 | > 100 | > 100 | > 100 | > 100 | > 100 | > 100 | > 100
13 | CCOC(=O)c1nc2cc(C(F)(F)F)ccc2nc1Oc1ccc(C#N)cc1 | > 100 | > 100 | > 100 | > 100 | > 100 | > 100 | > 100 | > 100 | > 100 | > 100 | > 100 | > 100
14 | CC(=O)O[C@@H]1C[C@]2(C(=O)c3ccccc3)C(=O)C(=O)S[C@]12c1ccccc1 | > 100 | > 100 | > 100 | > 100 | > 100 | > 100 | > 100 | > 100 | > 100 | 60.4 | > 100 | > 100
15 | Cc1cc(S(=O)(=O)NC2=NCc3nc4ccccc4n32)c(S)cc1Cl | 55.9 | > 100 | 40.3 | 86 | 63.3 | 60.4 | 83.2 | > 100 | 55.6 | 42.7 | > 100 | 47.2
16 | CCOC1CN=C(Nc2cccc3ccccc23)S1 (stereo not given) | > 10 | > 10 | > 10 | > 10 | > 10 | > 10 | > 10 | > 10 | > 10 | > 10 | > 10 | > 10
17 | CCOC(=O)Cc1csc(NC(NC(=O)OCC)(C(=O)OCC)C(F)(F)F)n1 (stereo not given) | > 100 | > 100 | > 100 | > 100 | > 100 | > 100 | > 100 | > 100 | > 100 | > 100 | > 100 | > 100
18 | COc1ccc(C2SC(N)=Nc3c2c(C)nn3C(=O)c2ccccc2O)cc1OC (stereo not given) | > 10 | > 10 | > 10 | > 10 | 5.11 | 9.32 | > 10 | > 10 | > 10 | > 10 | > 10 | 4.36

Row | Structure (SMILES) | TGI [1] [µM] | TGI [2] [µM] | TGI [3] [µM] | TGI [4] [µM] | TGI [5] [µM] | TGI [6] [µM] | TGI [7] [µM] | TGI [8] [µM] | TGI [9] [µM] | TGI [10] [µM] | TGI [11] [µM] | TGI [12] [µM]
19 | CC(/C=C/C(=O)NO)=C\C(C)C(=O)c1ccc(N(C)C)cc1 (stereo not given) | 0.0538 | 0.0863 |  | 41 | 0.133 | 0.234 | 16.8 | 0.107 | 10.7 | 2.04 | 0.0354 | 0.388
20 | O=C(C=P(c1ccccc1)(c1ccccc1)c1ccccc1)c1ccc(-c2cccs2)cc1 | 25.5 | 19.6 | 8.52 | 7.09 | 49.4 | 8.86 | 7.52 | 11.3 | 15.7 | 12.4 | 14.7 | 11.3
21 | CC1(C)NC(=O)C(NC(=O)C(N)CC(=O)O)CCCCNC(=O)CCNC1=O (stereo not given) (H-DK[Aib][βAla]; lactam 2-C; configuration not given here) | > 100 | > 100 | > 100 | > 100 | > 100 | > 100 | > 100 | > 100 | > 100 | > 100 | > 100 | > 100
22 | C=C(Cl)C(Cl)(CBr)CCC(Br)C(C)(C)Br (stereo not given) | 27.6 | 5.3 | 6.65 | 15.6 | 12.1 | 5.45 | 36 | 3.12 | 5.68 | 4.01 | 3.37 | 4.38
23 | Nc1nc(Cl)cc(NCC2(O)CCC2)n1 | > 100 | > 100 | > 100 | > 100 | > 100 | > 100 | > 100 | > 100 | > 100 | > 100 | > 100 | > 100
24 | CC[C@]12C=CCN3CC[C@@]4(c5cc(N=O)c(OC)cc5N(C)[C@H]4[C@@](O)(C(=O)OC)[C@@H]1OC(C)=O)[C@@H]32 | > 100 | > 100 | > 100 | > 100 | > 100 | > 100 | > 100 | > 100 | > 100 | 66.5 | 33.3 | > 100
25 | O=C(O)c1ccccc1C(=O)NCC1S(=O)(=O)OCCOS1(=O)=O | > 100 | > 100 | > 100 | > 100 | > 100 | > 100 | > 100 | > 100 | > 100 | > 100 | > 100 | > 100
26 | Cc1ccc(C)n1-c1ccccc1C1C=Cn2c(=O)nnc3c(OC(C)C)c(OC(C)C)c(O)c1c32 (stereo not given) | > 100 | > 100 | > 100 | > 100 | > 100 | > 100 | > 100 | > 100 | > 100 | > 100 | > 100 | > 100
27 | CCOC(=O)C1(C#N)OC(=O)c2cnccc21 (stereo not given) | > 100 | > 100 | > 100 | > 100 | > 100 | > 100 | > 100 |  | > 100 | > 100 | > 100 | > 100
28 | CC(C)C(NC(=O)OCC1c2ccccc2-c2ccccc21)C(=O)NC(CCC(=O)OC(C)(C)C)C(=O)OC(C)(C)C (stereo not given) (Fmoc-Val-Glu(OtBu)-OtBu; configuration not given here) | > 100 | > 100 | > 100 | > 100 | > 100 | > 100 | > 100 | > 100 | > 100 | > 92 | > 100 | > 100
29 | O=C(Nc1ccccc1)c1cc(S(=O)(=O)Nc2n[nH]c(=O)n2-c2ccccc2)c(S)cc1Cl | > 100 | > 100 | > 100 | > 100 | > 100 | > 100 | > 100 | > 100 | > 100 | > 100 | > 100 | > 100
30 | Cc1[nH]c(=O)nc2nc3cc(Cl)cc(Cl)c3c(NC(C)(CO)CO)c12 | 36.9 | > 100 | > 100 | > 100 | > 100 | 38.6 | > 100 | 84.1 | > 100 | > 100 | 28.8 | 57.7
31 | CCCCN1C(=O)C2Cc3c([nH]c4ccccc34)C(c3cccc(O)c3)N2C1=O (stereo not given) | 31.2 | 33.9 | 30.2 | 31.9 | 69.1 | 32.7 | 34.6 | 33.6 | 32.8 | 34.3 | 33.5 | 33.8
32 | COc1cc2c(cc1OC)OC(c1c(OC)ccc(OC)c1O)CC2 (stereo not given) | > 100 | > 100 | > 100 | > 100 | > 100 | > 100 | > 100 | > 100 | > 100 | > 100 | > 100 | > 100
33 | Cc1ccc(CC(Cc2ccccc2C)C(=O)O)c(C(=O)O)c1 (stereo not given) | > 100 | > 100 | > 100 | > 100 | > 100 | > 100 | > 100 | > 100 | > 100 | > 100 | > 100 | > 100
34 | N#Cc1ccc(C(O)C(F)(F)c2nc3ccccc3o2)cc1 (stereo not given) | > 100 | > 100 |  | > 100 | > 100 | > 100 | > 100 | > 100 | > 100 | > 100 | > 100 | > 100
35 | N#C/C(=C\c1ccc(F)cc1)c1nc(-c2cc3ccccc3oc2=O)cs1 | 33.7 | > 100 |  | > 100 | 56.7 | 95.9 | > 100 | 38.3 | > 100 | 65.9 | 61.4 | 29.5
36 | CC(=O)OCCn1cnc2c(NCC=C(C)C)ncnc21 | > 100 | > 100 | > 100 | > 100 | > 100 | > 100 | > 100 | > 100 | > 100 | > 100 |  | > 100
